Experimental data taken from patent US9199981B2 (NOVARTIS AG, priority 2011, dated 2015).

Biological target: c-kit (Homo sapiens (Human), UniProt P10721)
Test: Mo7e cell proliferation assay (SCF dependent proliferation)
Type: cell-based
Settings: Mo7e cells stimulated with human recombinant SCF, 48 hours
Method: Compounds of Formula (I) and Formula (II) provided herein were assayed to measure their capacity to inhibit c-kit and PDGFR kinases using the appropriate assay described below: c-Kit inhibition was evaluated using the Mo7e cell proliferation assay, and PDGFR inhibition was evaluated using the Rat A10 cell proliferation assay and the Human TG/HA-VSMC cell proliferation assay.
Mo7e Cell Proliferation Assay
The compounds of Table 1 and Table 2 were tested for inhibition of SCF dependent proliferation using human Mo7e cells which endogenously express c-kit in a 384 well format. […] After 48 hours of incubation at 37° C., cell viability was measured by adding 25 uL of CellTiter Glo (Promega) to the cells and the luminescence was measured by a CLIPR CCD camera (Molecular Devices).
The IC50 value is given as that concentration of the test compound in question that provoke a response halfway between the baseline and maximum responses.

Chain of c-kit (P10721 26-976): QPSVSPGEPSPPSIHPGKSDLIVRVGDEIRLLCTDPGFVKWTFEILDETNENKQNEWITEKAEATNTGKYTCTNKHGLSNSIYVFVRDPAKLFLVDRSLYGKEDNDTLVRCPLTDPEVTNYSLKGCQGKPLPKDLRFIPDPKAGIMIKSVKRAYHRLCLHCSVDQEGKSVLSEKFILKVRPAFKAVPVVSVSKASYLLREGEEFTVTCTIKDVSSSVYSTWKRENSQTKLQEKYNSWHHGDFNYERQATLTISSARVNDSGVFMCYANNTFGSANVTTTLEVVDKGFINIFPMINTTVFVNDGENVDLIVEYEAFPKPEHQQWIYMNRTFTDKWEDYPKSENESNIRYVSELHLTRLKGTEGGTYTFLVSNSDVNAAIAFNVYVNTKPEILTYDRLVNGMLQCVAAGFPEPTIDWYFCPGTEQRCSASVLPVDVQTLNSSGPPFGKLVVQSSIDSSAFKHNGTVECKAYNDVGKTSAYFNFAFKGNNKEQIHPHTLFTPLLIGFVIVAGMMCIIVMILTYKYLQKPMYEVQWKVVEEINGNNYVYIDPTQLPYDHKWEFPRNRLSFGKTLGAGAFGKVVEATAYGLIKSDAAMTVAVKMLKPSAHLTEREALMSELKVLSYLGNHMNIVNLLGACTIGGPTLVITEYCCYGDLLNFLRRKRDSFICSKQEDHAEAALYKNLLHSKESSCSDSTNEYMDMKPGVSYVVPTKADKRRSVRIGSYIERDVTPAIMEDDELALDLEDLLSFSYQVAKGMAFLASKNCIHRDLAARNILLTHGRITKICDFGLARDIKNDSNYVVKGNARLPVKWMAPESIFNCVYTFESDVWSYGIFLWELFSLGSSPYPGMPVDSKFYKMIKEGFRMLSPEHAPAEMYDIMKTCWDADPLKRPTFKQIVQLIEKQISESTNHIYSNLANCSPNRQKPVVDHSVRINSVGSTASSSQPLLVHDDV

| SMILES | IC50 (1% FBS) | IC50 (20% FBS (values marked *)) |
| --- | --- | --- |
| COCc1ccc2ncc(C(=O)Nc3cc(-c4noc(C5CC(F)(F)C5)n4)ccc3C)n2c1 [F39] | 37 nM |  |
| Cc1ccc(-c2noc(CNC(=O)OC3(C)CC3)n2)cc1NC(=O)c1cnc2ccccn12 [F26] | 58 nM |  |
| COCCO[C@H]1C[C@@H](c2nc(-c3ccc(C)c(NC(=O)c4cnc5ccccn45)c3)no2)C1 [F18, N-(5-(5-((1s,3s)-3-(2-methoxyethoxy)cyclobutyl)-1,2,4-oxadiazol-3-yl)-2-methylphenyl)imidazo[1,2-a]pyridine-3-carboxamide] | 25 nM |  |
| Cc1ccc(-c2noc(C3CC4(C3)OCCCO4)n2)cc1NC(=O)c1cnc2ccccn12 [F10] | 52 nM |  |
| CC(=O)CCc1ccc2ncc(C(=O)Nc3cc(-c4noc(C5CC(F)(F)C5)n4)ccc3C)n2c1 [F53, N-(5-(5-(3,3-difluorocyclobutyl)-1,2,4-oxadiazol-3-yl)-2-methylphenyl)-6-(3-oxobutyl)imidazo[1,2-a]pyridine-3-carboxamide] | 45 nM |  |
| Cc1ccc(-c2noc(C3CC3(F)F)n2)cc1NC(=O)c1cnc2ccccn12 (stereo not shown) [F64, N-(5-(5-(2,2-difluorocyclopropyl)-1,2,4-oxadiazol-3-yl)-2-methylphenyl)imidazo[1,2-a]pyridine-3-carboxamide] | 52 nM |  |
| Cc1ccc(-c2noc(C3CC(F)(F)C3)n2)cc1NC(=O)c1cnc2ccc(COCCF)cn12 [F83] | 29 nM |  |
| Cc1ccc(-c2noc(C3CCC(=O)C3)n2)cc1NC(=O)c1cnc2ccccn12 (stereo not shown) [F2] |  | 58 nM |
| Cc1ccc(-c2noc(C3CC(F)(F)C3)n2)cc1NC(=O)c1cnc2cc(-c3cn(CCO)nn3)ccn12 [F66, N-(5-(5-(3,3-difluorocyclobutyl)-1,2,4-oxadiazol-3-yl)-2-methylphenyl)-7-(1-(2-hydroxyethyl)-1H-1,2,3-triazol-4-yl)imidazo[1,2-a]pyridine-3-carboxamide] | 16 nM |  |
| Cc1ccc(-c2noc(C3CC(C)(O)C3)n2)cc1NC(=O)c1cnc2ccccn12 (stereo not shown) [F116] |  | 182 nM |
| Cc1ccc(-c2noc(C3(N(C)C)CC3)n2)cc1NC(=O)c1cnc2ccccn12 [F29, N-(5-(5-(1-(dimethylamino)cyclopropyl)-1,2,4-oxadiazol-3-yl)-2-methylphenyl)imidazo[1,2-a]pyridine-3-carboxamide] | 58 nM |  |
| Cc1ccc(-c2noc(C3CC(F)(F)C3)n2)cc1NC(=O)c1cnc2ccc(CN3CCN(CCO)CC3)cn12 [F145] | 238 nM |  |
| Cc1ccc2ncc(C(=O)Nc3cc(-c4noc(C5CC(F)C5)n4)ccc3C)n2c1 (stereo not shown) [F112] | 56 nM |  |
| Cc1ccc(-c2noc(C3CC(F)(F)C3)n2)cc1NC(=O)c1cnc2ccc(-c3cscn3)cn12 [F46] | 13 nM |  |
| Cc1ccn2c(C(=O)Nc3cc(-c4noc([C@@H]5C[C@H]5F)n4)ccc3C)cnc2c1 [F107] | 85 nM |  |
| COCC1(c2nc(-c3ccc(C)c(NC(=O)c4cnc5ccccn45)c3)no2)CC1 [F20] | 49 nM |  |
| [2H]C([2H])([2H])O[C@H]1C[C@@H](c2nc(-c3ccc(C)c(NC(=O)c4cnc5ccccn45)c3)no2)C1 [F19] | 9 nM |  |
| Cc1ccc(-c2noc(C3CC(O)(C(F)(F)F)C3)n2)cc1NC(=O)c1cnc2ccccn12 (stereo not shown) [F25, N-(5-(5-(3-hydroxy-3-(trifluoromethyl)cyclobutyl)-1,2,4-oxadiazol-3-yl)-2-methylphenyl)imidazo[1,2-a]pyridine-3-carboxamide] | 13 nM |  |
| Cc1ccc(-c2noc(C3CC4(C3)OCCO4)n2)cc1NC(=O)c1cnc2ccccn12 [F8, N-(5-(5-(5,8-dioxaspiro[3.4]octan-2-yl)-1,2,4-oxadiazol-3-yl)-2-methylphenyl)imidazo[1,2-a]pyridine-3-carboxamide] | 55 nM |  |
| Cc1ccc(-c2noc(C3CC(n4cccn4)C3)n2)cc1NC(=O)c1cnc2ccccn12 (stereo not shown) [F45, N-(5-(5-(3-(1H-pyrazol-1-yl)cyclobutyl)-1,2,4-oxadiazol-3-yl)-2-methylphenyl)imidazo[1,2-a]pyridine-3-carboxamide] | 71 nM |  |
| COCCN[C@H]1C[C@@H](c2nc(-c3ccc(C)c(NC(=O)c4cnc5ccccn45)c3)no2)C1 [F133] | 451 nM |  |
| Cc1ccc(-c2noc(CNC(=O)OC3(C)CC3)n2)cc1NC(=O)c1cnc2cc(C(F)(F)F)ccn12 [F141] | 391 nM |  |
| COC(=O)NC1(c2nc(-c3ccc(C)c(NC(=O)c4cnc5ccccn45)c3)no2)CC(F)(F)C1 [F175, methyl (3,3-difluoro-1-(3-(3-(imidazo[1,2-a]pyridine-3-carboxamido)-4-methylphenyl)-1,2,4-oxadiazol-5-yl)cyclobutyl)carbamate] | 73 nM |  |
| COCc1n[nH]c(-c2ccc3ncc(C(=O)Nc4cc(-c5noc(C6CC(F)(F)C6)n5)ccc4C)n3c2)n1 [F84] | 22 nM |  |
| Cc1ccc(-c2noc(C3CC(O)(C4CC4)C3)n2)cc1NC(=O)c1cnc2ccccn12 (stereo not shown) [F31, N-(5-(5-(3-cyclopropyl-3-hydroxycyclobutyl)-1,2,4-oxadiazol-3-yl)-2-methylphenyl)imidazo[1,2-a]pyridine-3-carboxamide] | 50 nM |  |
| Cc1ccc(C(=O)NC2CC(F)(F)C2)cc1NC(=O)c1cnc2ccccn12 [F93] | 24 nM |  |
| Cc1ccc(-c2noc(C3(NC(=O)OC(C)(C)C)CC3)n2)cc1NC(=O)c1cnc2ccccn12 [F21] | 89 nM |  |
| Cc1ccn2c(C(=O)Nc3cc(-c4noc(C5CC5(F)F)n4)ccc3C)cnc2c1 (stereo not shown) [F165] | 107 nM |  |

| SMILES | IC50 (1% FBS) | IC50 (20% FBS (values marked *)) |
| --- | --- | --- |
| Cc1ccc(-c2noc([C@H]3C[C@@](C)(O)C3)n2)cc1NC(=O)c1cnc2ccc(F)cn12 [F158] | 175 nM |  |
| O=C(Nc1cc(-c2noc(C3CC(F)(F)C3)n2)ccc1F)c1cnc2ccccn12 [F134] | 144 nM |  |
| Cc1ccc(-c2noc(CCC3(O)CC3)n2)cc1NC(=O)c1cnc2ccccn12 [F55a, N-(5-(5-(2-(1-hydroxycyclopropyl)ethyl)-1,2,4-oxadiazol-3-yl)-2-methylphenyl)imidazo[1,2-a]pyridine-3-carboxamide] | 92 nM |  |
| COC1(C(F)(F)F)CC(c2nc(-c3ccc(C)c(N(C)C(=O)c4cnc5ccccn45)c3)no2)C1 (stereo not shown) [F135] | 999 nM |  |
| Cc1ccc(-c2noc(C3CC(=NOC(C)C)C3)n2)cc1NC(=O)c1cnc2ccccn12 (stereo not shown) [F16] | 66 nM |  |
| Cc1ccc(-c2noc(C3CC(F)(F)C3)n2)cc1NC(=O)c1cnc2ccc(-c3nnn[nH]3)cn12 [F173] | > 10000 nM |  |
| C=C1CC(c2nc(-c3ccc(C)c(NC(=O)c4cnc5ccccn45)c3)no2)C1 [F30] | 16 nM |  |
| Cc1ccc(-c2noc([C@H]3C[C@@H](O)C3)n2)cc1NC(=O)c1cnc2ccc(F)cn12 [F151] | 181 nM |  |
| Cc1ccc(-c2noc(C3CC(F)(F)C3)n2)cc1NC(=O)c1cnc2ccc(CN3CCN(C)CC3)cn12 [F144] | 249 nM |  |
| Cc1ccc(-c2noc(C3CC(F)(F)C3)n2)cc1NC(=O)c1cnc2ccc(CCC(=O)OC(C)(C)C)cn12 [F143] | 237 nM |  |
| Cc1ccc(-c2noc(C3CC(F)(F)C3)n2)cc1NC(=O)c1cnc2ccc(CCC(C)(C)O)cn12 [F54, N-(5-(5-(3,3-difluorocyclobutyl)-1,2,4-oxadiazol-3-yl)-2-methylphenyl)-6-(3-hydroxy-3-methylbutyl)imidazo[1,2-a]pyridine-3-carboxamide] | 31 nM |  |
| CC(C)(O)Cn1cc(-c2ccc3ncc(C(=O)Nc4cc(-c5noc(C6CC(F)(F)C6)n5)ccc4F)n3c2)cn1 [F48] | 16 nM |  |
| Cc1ccc(-c2noc([C@H]3C[C@@H](N4CCCCC4)C3)n2)cc1NC(=O)c1cnc2ccccn12 [F123] | 345 nM |  |
| Cc1ccc(-c2noc(C3CC(=NO)C3)n2)cc1NC(=O)c1cnc2ccccn12 (stereo not shown) [F4] | 22 nM |  |
| Cc1ccc(-c2noc(C3CC(=NOCC4CC4)C3)n2)cc1NC(=O)c1cnc2ccccn12 (stereo not shown) [F15] | 35 nM |  |
| Cc1ccc(-c2noc([C@H]3C[C@@H]3F)n2)cc1NC(=O)c1cnc2ccccn12 [F110, N-(5-(5-((1R,2S)-2-fluorocyclopropyl)-1,2,4-oxadiazol-3-yl)-2-methylphenyl)imidazo[1,2-a]pyridine-3-carboxamide] | 58 nM |  |
| Cc1ccc(-c2noc(COC3CC(F)(F)C3(F)F)n2)cc1NC(=O)c1cnc2ccccn12 (stereo not shown) [F35] | 3 nM |  |
| Cc1ccc(-c2noc([C@H]3C[C@@H]3F)n2)cc1NC(=O)c1cnc2ccccn12 [F91] | 20 nM |  |
| Cc1ccc(-c2noc(C3CC(C)(C)C3)n2)cc1NC(=O)c1cnc2ccccn12 [F58] | 20 nM |  |
| Cc1ccc(-c2noc(C3CC4(CC(=O)C4)C3)n2)cc1NC(=O)c1cnc2ccccn12 [F75, N-(2-methyl-5-(5-(6-oxospiro[3.3]heptan-2-yl)-1,2,4-oxadiazol-3-yl)phenyl)imidazo[1,2-a]pyridine-3-carboxamide] | 17 nM |  |
| Cc1ccc(-c2noc(C3CC3)n2)cc1NC(=O)c1cnc2ccccn12 [F104] | 57 nM |  |
| Cc1ccc(-c2noc(C3CC(=NOCCN4CCOCC4)C3)n2)cc1NC(=O)c1cnc2ccccn12 (stereo not shown) [F126] | 213 nM |  |
| Cc1ccc(-c2noc(C3CC(F)(F)C3)n2)cc1NC(=O)c1cnc2ccc(CN3CCOC3=O)cn12 [F154] | 365 nM |  |
| Cc1ccc(-c2noc([C@H]3C[C@@H](OCC(C)(C)O)C3)n2)cc1NC(=O)c1cnc2ccc(F)cn12 [F172] | > 10000 nM |  |
| CC1(C)CC(c2nc(-c3ccc(F)c(NC(=O)c4cnc5ccccn45)c3)no2)C1 [F156] | 125 nM |  |
| Cc1ccc(-c2noc([C@H]3C[C@@](C)(O)C3)n2)cc1NC(=O)c1cnc2ccccn12 [F6, N-(5-(5-((1s,3s)-3-hydroxy-3-methylcyclobutyl)-1,2,4-oxadiazol-3-yl)-2-methylphenyl)imidazo[1,2-a]pyridine-3-carboxamide] | 119 nM |  |
| Cc1ccc(-c2noc(C3(C(N)=O)CC3)n2)cc1NC(=O)c1cnc2ccc(F)cn12 [F168] | 516 nM |  |
